Structures can show the parent of a compound that is named as a salt.

For one assay, the target named is human SPR (Homo sapiens (Human), UniProt P35270). Nature of the assay: Evaluation Example 2: Measurement of human SPR inhibitory activity (seven concentrations, sepiapterin absorbance at 420 nm). Type of assay: biochemical. Conditions: Evaluation Example 2, seven concentrations 0.14 nM to 100 nM, 240 minutes at room temperature, read-out: IC50. The procedure, abridged: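 Reactions ran 240 min at room temperature in 100 mM Tris-HCl pH 7.5 with 0.01% BSA. They contained tag-cleaved, E. coli-expressed full-length human SPR (diluted to 150 ng/mL), seven compound concentrations from 0.14 to 100 nM, and sepiapterin/NADPH added as a 120 μM/160 μM solution. Inhibition was calculated from sepiapterin absorbance at 420 nm.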
Chain of human SPR (P35270 whole entry): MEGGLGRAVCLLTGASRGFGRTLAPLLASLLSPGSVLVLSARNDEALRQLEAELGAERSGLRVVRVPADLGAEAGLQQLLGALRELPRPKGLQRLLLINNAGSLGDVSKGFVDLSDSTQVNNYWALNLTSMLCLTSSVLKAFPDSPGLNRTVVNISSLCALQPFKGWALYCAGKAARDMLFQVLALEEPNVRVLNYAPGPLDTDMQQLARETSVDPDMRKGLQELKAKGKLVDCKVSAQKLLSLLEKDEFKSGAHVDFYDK
Turning to `CC[C@@H]1COCCN1C(=O)/C=C/c1c(C)nn2c(O)c(C(=O)NC3CC3)c(=O)n(CC(C)C)c12` [compound 573, (R,E)-N-Cyclopropyl-3-(3-(3-ethylmorpholino)-3-oxoprop-1-en-1-yl)-7-hydroxy-4-isobutyl-2-methyl-5-oxo-4,5-dihydropyrazolo[1,5-a]pyrimidine-6-carboxamide], the IC50 is 880 pM.
Regarding `CC(C)Cn1c(=O)c(C(=O)NC2CC2)c(O)n2ncc(/C=C/C(=O)N3C[C@@H](C)O[C@H](C)C3)c12` [compound 491], the IC50 is 820 pM.
With `CC(C)Cn1c(=O)c(C(=O)NC2CC2)c(O)n2ncc(/C=C/C(=O)N3CCC4(CCOCC4)C3)c12` [compound 559, (E)-N-Cyclopropyl-7-hydroxy-4-isobutyl-5-oxo-3-(3-oxo-3-(8-oxa-2-azaspiro[4.5]decan-2-yl)prop-1-en-1-yl)-4,5-dihydropyrazolo[1,5-a]pyrimidine-6-carboxamide], the IC50 came out at 1000 pM.
In the case of `CC(C)Cn1c(=O)c(C(=O)NC2CC2)c(O)n2nc3[nH]ccc3c12` [Synthesis Example 399, N-Cyclopropyl-7-hydroxy-4-isobutyl-5-oxo-4,5-dihydro-1H-pyrrolo[2′,3′:3,4]pyrazolo[1,5-a]pyrimidine-6-carboxamide], the IC50 came out at 1560 pM.
On the same count and under the same terms, the result for `CC(C)(C)Cn1c(=O)c(C(=O)NC2CC2)c(O)n2nc(-c3cnccc3F)cc12` [Synthesis Example 295, N-Cyclopropyl-2-(4-fluoropyridin-3-yl)-7-hydroxy-4-neopentyl-5-oxo-4,5-dihydropyrazolo[1,5-a]pyrimidine-6-carboxamide] reads 2480 pM; that for `CC(C)Cn1c(=O)c(C(=O)NC2CC2)c(O)n2nc(NC(=O)OC(C)(C)C)c(/C=C/C(=O)N3CCOCC3)c12` [Synthesis Example 415, Tert-butyl (E)-(6-(cyclopropylcarbamoyl)-7-hydroxy-4-isobutyl-3-(3-morpholino-3-oxoprop-1-en-1-yl)-5-oxo-4,5-dihydropyrazolo[1,5-a]pyrimidin-2-yl)carbamate], 740 pM.
As to `CC[C@H]1CCCN1C(=O)/C=C/c1cnn2c(O)c(C(=O)NC3CC3)c(=O)n(CC(C)C)c12` [compound 605, (S,E)-N-Cyclopropyl-3-(3-(2-ethylpyrrolidin-1-yl)-3-oxoprop-1-en-1-yl)-7-hydroxy-4-isobutyl-5-oxo-4,5-dihydropyrazolo[1,5-a]pyrimidine-6-carboxamide], the IC50 was 1200 pM.
With `CC(C)(C)Cn1c(=O)c(C(=O)NC2CC2)c(O)n2nc(N)c(/C=C/C3CCOC3)c12` (stereo not shown) [Synthesis Example 444, (E)-2-Amino-N-cyclopropyl-7-hydroxy-4-neopentyl-5-oxo-3-(2-(tetrahydrofuran-3-yl)vinyl)-4,5-dihydropyrazolo[1,5-a]pyrimidine-6-carboxamide hydrochloride], the IC50 is 980 pM.
On the same count and under the same terms, the value for `O=C(NC1CC1)c1c(O)n2ncc(/C=C/C(=O)N3CC4CCC(C3)O4)c2n(CC2(F)CC2)c1=O` [Synthesis Example 378, (E)-3-(3-(8-Oxa-3-azabicyclo[3.2.1]octan-3-yl)-3-oxoprop-1-en-1-yl)-N-cyclopropyl-4-((1-fluorocyclopropyl)methyl)-7-hydroxy-5-oxo-4,5-dihydropyrazolo[1,5-a]pyrimidine-6-carboxamide] was 790 pM; that for `CC(C)Cn1c(=O)c(C(=O)NC2CC2)c(O)n2ncc(C(=O)NCc3cnccn3)c12` [Synthesis Example 220, N6-Cyclopropyl-7-hydroxy-4-isobutyl-5-oxo-N3-(pyrazin-2-ylmethyl)-4,5-dihydropyrazolo[1,5-a]pyrimidine-3,6-dicarboxamide] was 790 pM.
For the compound `CC(C)(C)Cn1c(=O)c(C(=O)NC2CC2)c(O)n2nc(-c3cccnc3C(F)F)cc12` [Synthesis Example 297, N-Cyclopropyl-2-(2-(difluoromethyl)pyridin-3-yl)-7-hydroxy-4-neopentyl-5-oxo-4,5-dihydropyrazolo[1,5-a]pyrimidine-6-carboxamide], the IC50 was 3320 pM.
For the compound `CC(C)Cn1c(=O)c(C(=O)N[C@@H](C)C(F)(F)F)c(O)n2nc(N)c(/C=C/C(=O)N3CCC(F)(F)CC3)c12` [Synthesis Example 421, (S,E)-2-Amino-3-(3-(4,4-difluoropiperidin-1-yl)-3-oxoprop-1-en-1-yl)-7-hydroxy-4-isobutyl-5-oxo-N-(1,1,1-trifluoropropan-2-yl)-4,5-dihydropyrazolo[1,5-a]pyrimidine-6-carboxamide hydrochloride], the IC50 is 770 pM.
Same read-out and setting: the value for `CC(C)Cn1c(=O)c(C(=O)NC2CC2)c(O)n2ncc(/C=C/C(=O)N3CCOCC3CC(F)(F)F)c12` (single isomer, unassigned; isomer b) [compound 551, (E)-N-Cyclopropyl-7-hydroxy-4-isobutyl-5-oxo-3-(3-oxo-3-(3-(2,2,2-trifluoroethyl)morpholino)prop-1-en-1-yl)-4,5-dihydropyrazolo[1,5-a]pyrimidine-6-carboxamide (Isomer B)] was 840 pM.
Same read-out and setting: the result for `Cc1cnc(CNC(=O)c2cnn3c(O)c(C(=O)NC4CC4)c(=O)n(CC(C)C)c23)cn1` [Synthesis Example 224, N6-Cyclopropyl-7-hydroxy-4-isobutyl-N3-((5-methylpyrazin-2-yl)methyl)-5-oxo-4,5-dihydropyrazolo[1,5-a]pyrimidine-3,6-dicarboxamide] reads 780 pM.
Same read-out and setting: the value for `CC(C)Cn1c(=O)c(C(=O)NC2CC2)c(O)n2ncc(/C=C/C(=O)N3CC[C@@H](F)C3)c12` [compound 481, (R,E)-N-Cyclopropyl-3-(3-(3-fluoropyrrolidin-1-yl)-3-oxoprop-1-en-1-yl)-7-hydroxy-4-isobutyl-5-oxo-4,5-dihydropyrazolo[1,5-a]pyrimidine-6-carboxamide] was 750 pM; that for `CC(C)Cn1c(=O)c(C(=O)NC2CC2)c(O)n2ncc(/C=C/C(=O)N3[C@H](C)COC[C@@H]3C)c12` [compound 557, N-Cyclopropyl-3-((E)-3-(cis-3,5-dimethylmorpholino)-3-oxoprop-1-en-1-yl)-7-hydroxy-4-isobutyl-5-oxo-4,5-dihydropyrazolo[1,5-a]pyrimidine-6-carboxamide] was 810 pM.

The same assay, now with this note: sepiapterin absorbance, Table 41, read-out: concentration at 50% inhibition of human SPR (IC50).
For `CC(C)Cn1c(=O)c(C(=O)NC2CC2)c(O)n2ncc(/C=C/C(=O)N3CCN(C4CC(F)(F)C4)C[C@@H]3C)c12` [Synthesis Example 726, (S,E)-N-Cyclopropyl-3-(3-(4-(3,3-difluorocyclobutyl)-2-methylpiperazin-1-yl)-3-oxoprop-1-en-1-yl)-7-hydroxy-4-isobutyl-5-oxo-4,5-dihydropyrazolo[1,5-a]pyrimidine-6-carboxamide], the IC50 came out at 1350 pM.
As for `CC(C)Cn1c(=O)c(C(=O)NC2CC2)c(O)n2ncc(/C=C/C(=O)N3CCN(C)C[C@@H]3C)c12` [Synthesis Example 713, (S,E)-N-Cyclopropyl-3-(3-(2,4-dimethylpiperazin-1-yl)-3-oxoprop-1-en-1-yl)-7-hydroxy-4-isobutyl-5-oxo-4,5-dihydropyrazolo[1,5-a]pyrimidine-6-carboxamide], the IC50 is 960 pM.
For the compound `CC(C)Cn1c(=O)c(C(=O)NC2CC2)c(O)n2ncc(/C=C/C(=O)N3CCN(C4CC(F)(F)C4)C[C@H]3C)c12` [Synthesis Example 715, (R,E)-N-Cyclopropyl-3-(3-(4-(3,3-difluorocyclobutyl)-2-methylpiperazin-1-yl)-3-oxoprop-1-en-1-yl)-7-hydroxy-4-isobutyl-5-oxo-4,5-dihydropyrazolo[1,5-a]pyrimidine-6-carboxamide], the IC50 was 1280 pM.
